{"source": "patent US4663321A", "about": "“Triazolobenzodiazepines and pharmaceutical use” (Merck & Co., Inc., priority 1985, dated 1987)", "key": {"CCK receptor [1]": {"test_system": "CCK receptor", "settings": "prior art CCK antagonists; cited from earlier work"}, "CCK receptor [2]": {"biological_target": "T1, CCK receptor (Rattus norvegicus, UniProt P30551)", "T1 construct": "The whole pancreas was dissected free of fat tissue and was homogenized; from tissue; host or cells: rat (Sprague-Dawley) whole pancreas membranes", "T1 sequence (P30551 1-444)": "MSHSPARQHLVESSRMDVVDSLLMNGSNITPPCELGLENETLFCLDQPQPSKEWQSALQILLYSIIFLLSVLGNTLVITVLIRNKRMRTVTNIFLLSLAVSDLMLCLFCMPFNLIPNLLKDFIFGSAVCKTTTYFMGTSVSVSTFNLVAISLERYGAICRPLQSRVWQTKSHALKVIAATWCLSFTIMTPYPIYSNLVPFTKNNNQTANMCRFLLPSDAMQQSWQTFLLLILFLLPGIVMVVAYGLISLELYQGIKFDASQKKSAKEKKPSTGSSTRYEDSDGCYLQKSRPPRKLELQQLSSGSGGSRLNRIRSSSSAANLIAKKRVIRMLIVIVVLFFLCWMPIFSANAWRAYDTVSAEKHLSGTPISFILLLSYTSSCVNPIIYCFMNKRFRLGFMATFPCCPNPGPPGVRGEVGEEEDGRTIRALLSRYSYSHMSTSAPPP", "experiment": "CCK receptor binding (pancreas), inhibition of 125I-CCK-33 binding", "parameters": "species or system rat (Male Sprague-Dawley)", "settings": "for effect on the 125I-CCK receptor binding assay: protease inhibitor additives of the assay buffer", "procedure": "1. CCK receptor binding (pancreas)\nCCK-33 was radiolabeled with ^125 I-Bolton Hunter reagent (2000 Ci/mmole) as described by Sankara et al. (J. Biol. Chem. 254: 9349-9351, 1979). Receptor binding was performed according to Innis and Snyder (Proc. Natl. Acad. Sci. 77: 6917-6921, 1980) with the minor modification of adding the additional protease inhibitors, phenylmethane sulfonyl fluoride and o-phenanthroline. The latter two compounds have no effect on the ^125 I-CCK receptor binding assay.\nMale Sprague-Dawley rats (200-350 g) were sacrificed by decapitation. The whole pancreas was dissected free of fat tissue and was homogenized in 20 volumes of ice-cold 50 mM. Tris HCl (pH 7.7 at 25° C.) with a Brinkmann Polytron PT 10. The homogenates were centrifuged at 48,000 g for 10 min. Pellets were resuspended in Tris Buffer, centrifuged as above and resuspended in 200 volumes of binding assay buffer (50 mM Tris HCl, pH 7.7 at 25° C., 5 mM dithiothrietol, 0.1 mM bacitracin, 1.2 mM phenylmethane sulfonyl fluoride and 0.5 mM o-phenanthroline). […] All assays were run in duplicate or triplicate. The reaction mixtures were incubated at 37° C. for 30 minutes and centrifuged in a Beckman Microfuge (4 minutes) immediately after adding 1 ml of ice-cold incubation buffer. The supernatant was aspirated and discarded, pellets were counted with a Beckman gamma 5000. For Scatchard analysis (Ann. N.Y. Acad. Sci. 51: 660, 1949), ^125 I-CCK-33 was progressively diluted with increasing concentrations of CCK-33."}, "CCK receptor [3]": {"biological_target": "T2, CCK receptor (Cavia porcellus, UniProt H0VZC5)", "T2 construct": "Cerebral cortex was dissected and used as a receptor source; from tissue; host or cells: guinea pig (Hartley) cerebral cortex membranes", "T2 sequence (H0VZC5 entry or part of it)": "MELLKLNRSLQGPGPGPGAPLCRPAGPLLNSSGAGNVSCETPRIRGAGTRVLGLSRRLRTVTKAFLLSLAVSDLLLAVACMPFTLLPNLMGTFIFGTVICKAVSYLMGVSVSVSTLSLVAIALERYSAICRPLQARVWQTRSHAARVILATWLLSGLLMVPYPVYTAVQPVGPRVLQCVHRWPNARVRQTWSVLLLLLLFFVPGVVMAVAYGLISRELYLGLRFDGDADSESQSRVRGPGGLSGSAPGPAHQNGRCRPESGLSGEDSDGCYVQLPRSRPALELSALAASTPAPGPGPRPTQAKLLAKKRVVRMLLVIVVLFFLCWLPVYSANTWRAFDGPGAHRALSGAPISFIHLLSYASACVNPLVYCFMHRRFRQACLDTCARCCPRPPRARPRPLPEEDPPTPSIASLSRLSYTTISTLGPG", "experiment": "CCK receptor binding (brain), inhibition of 125I-CCK-33 binding", "parameters": "species or system guinea pig (Male Hartley)", "settings": "125I-CCK-33, guinea pig cerebral cortex, 25° C., 2 hours", "procedure": "2. CCK Receptor Binding (Brain)\nCCK-33 was radiolabeled and the binding was performed according to the description for the pancreas method with modification according to Saito et al. (J. Neurochem. 37, 483-490, 1981).\nMale Hartley guinea pigs (300-500 g) were sacrificed by decapitation and the brains were removed and placed in ice-cold 50 mM. Tris HCl plus 7.58 g/l Trizma-7.4 (pH 7.4 at 25° C.). Cerebral cortex was dissected and used as a receptor source. Each gram of fresh guinea pig brain tissue was homogenized in 10 ml of Tris Trizma buffer with a Brinkman polytron PT-10. The homogenates were centrifuged at 42,000 g for 15 min. […] All assays were run in duplicate or triplicate. The reaction mixtures were incubated at 25° C. for 2 hours and centrifuged in a Beckman Microfuge (4 minutes) immediately after adding 1 ml of ice-cold incubation buffer. The supernatant was aspirated and discarded, pellets were counted with a Beckman gamma 5000."}, "gastrin receptor": {"test_system": "gastrin receptor", "settings": "cited from earlier work"}, "[4]": {"settings": "125I-CCK-33, rat pancreas membranes, 37° C., 30 minutes, read-out: IC50 125I-CCK Pancreas"}, "[5]": {"settings": "read-out: IC50 125I-CCK Pancreas"}}, "note": "pIC50: −log10 of the molar value. Read-outs that look alike come from different tables or passages of the source. Square brackets hold non-standard residues; d marks the D form. Peptide text beside a SMILES is read from it. * marks the point of attachment. sY = N[C@@H](Cc1ccc(OS(=O)(=O)O)cc1)C(=O)O; Cbz = O=C(OCc1ccccc1)*; Boc = CC(C)(C)OC(=O)*"}
{"smiles": "CSCC[C@H](NC(=O)OC(C)(C)C)C(=O)N[C@@H](CC(=O)O)C(=O)N[C@@H](Cc1ccccc1)C(N)=O", "note": "[Boc-Met-Asp-Phe-NH2] (Boc-Met-Asp-Phe-NH2)", "values": [{"measurement": "CCK antagonist activity", "setting": "CCK receptor [1]", "value": "can function as CCK antagonists"}]}
{"smiles": "CSCC[C@H](NC(=O)[C@H](Cc1ccc(OS(=O)(=O)O)cc1)NC(=O)OCc1ccccc1)C(=O)NCC(=O)N[C@@H](Cc1c[nH]c2ccccc12)C(=O)N[C@@H](CCSC)C(=O)N[C@@H](CC(=O)O)C(N)=O", "note": "[Cbz-Tyr(SO3 H)-Met-Gly-Trp-Met-Asp-NH2] (Cbz-[sY]MGWMD-NH2)", "values": [{"measurement": "CCK antagonist activity", "setting": "CCK receptor [1]", "value": "can function as CCK antagonists"}]}
{"smiles": "Fc1ccccc1C1=N[C@H](Cc2c[nH]c3ccccc23)c2nncn2-c2ccccc21", "note": "[Compound 1, 6-(2-Fluorophenyl)-4(R)-4-(3'-indolyl)methyl-4H-s-triazolo[4,3-a]-1,4-benzodiazepine]", "values": [{"measurement": "pIC50", "setting": "CCK receptor [2]; [4]", "value": 6.70}]}
{"smiles": "Cc1nnc2n1-c1ccccc1C(c1ccccc1F)=N[C@@H]2Cc1c[nH]c2ccccc12", "note": "[Compound 2, 6-(2-Fluorophenyl)-4-(R)-4-(3'-indolyl)methyl-1-methyl-4H-s-triazolo[4,3-a]-1,4-benzodiazepine]", "values": [{"measurement": "pIC50", "setting": "CCK receptor [2]; [4]", "value": 6.52}, {"measurement": "pIC50", "setting": "CCK receptor [3]", "value": 4.41}]}
{"smiles": "Fc1ccccc1C1=N[C@H](Cc2c[nH]c3ccccc23)c2nnc(-c3ccccc3)n2-c2ccccc21", "note": "[Compound 3, 6-(2-Fluorophenyl)-4(R)-4-(3'-indolyl)methyl-1-phenyl-4H-s-triazolo[4,3-a]-1,4-benzodiazepine]", "values": [{"measurement": "pIC50", "setting": "CCK receptor [2]; [5]", "value": 4.66}]}
{"smiles": "CN(C)Cc1nnc2n1-c1ccccc1C(c1ccccc1F)=N[C@@H]2Cc1c[nH]c2ccccc12", "note": "[Compound 4, 6-(2-Fluorophenyl)-4(R)-4-(3'-indolyl)methyl-1-dimethylaminomethyl-4H-s-triazolo[4,3-a]-1,4-benzodiazapine]", "values": [{"measurement": "pIC50", "setting": "CCK receptor [2]; [5]", "value": 4.85}]}
{"smiles": "O=c1[nH]nc2n1-c1ccccc1C(c1ccccc1F)=N[C@@H]2Cc1c[nH]c2ccccc12", "note": "[Compound 5, 2,4-Dihydro-3(R)-(3'-indolyl)methyl-6-(2-fluorophenyl)-1H-S-triazolo-[4,3-a]-1,4-benzodiazepin-1-one solvate]", "values": [{"measurement": "pIC50", "setting": "CCK receptor [2]", "value": 5.51}, {"measurement": "pIC50", "setting": "CCK receptor [3]", "value": 4.20}]}
{"smiles": "Fc1ccccc1C1=N[C@H](Cc2c[nH]c3ccccc23)c2nnc(C(Cl)(Cl)Cl)n2-c2ccccc21", "note": "[Compound 6, 1-Trichloromethyl-4(R)-(3'-indolyl)methyl-6-(2-fluorophenyl)-4H-S-triazolo[4,3-a]-1,4-benzodiazepine solvate]", "values": [{"measurement": "pIC50", "setting": "CCK receptor [2]; [4]", "value": 4.60}, {"measurement": "pIC50", "setting": "CCK receptor [3]", "value": "< 4.00"}]}
{"smiles": "O=C(NC1N=C(c2ccccc2F)c2ccccc2-n2cnnc21)OCc1ccccc1", "note": "(stereo not drawn) [Compound 7, 6-(2-Fluorophenyl)-4-benzyloxycarbonylamino-4H-s-triazolo[4,3-a]-1,4-benzodiazepine]", "values": [{"measurement": "pIC50", "setting": "CCK receptor [2]; [5]", "value": 6.66}, {"measurement": "pIC50", "setting": "CCK receptor [3]", "value": 5.10}]}
{"smiles": "O=C(NC1N=C(c2ccccc2F)c2ccccc2-n2cnnc21)c1ccc(Cl)cc1", "note": "(stereo not drawn) [Compound 8, 6-(2-Fluorophenyl)-4-(4-chlorophenyl)carbonylamino-4H-s-triazolo[4,3-a]-1,4-benzodiazepine]", "values": [{"measurement": "pIC50", "setting": "CCK receptor [2]; [4]", "value": 8.36}, {"measurement": "pIC50", "setting": "CCK receptor [3]", "value": 5.03}]}
{"smiles": "O=C(NC1N=C(c2ccccc2F)c2ccccc2-n2cnnc21)c1cc2ccccc2[nH]1", "note": "(stereo not drawn) [Compound 9, 6-(2-Fluorophenyl)-4-(indol-2-yl)carbonylamino-4H-s-triazolo[4,3-a]-1,4-benzodiazepine]", "values": [{"measurement": "pIC50", "setting": "CCK receptor [2]; [4]", "value": 9.05}, {"measurement": "pIC50", "setting": "CCK receptor [3]", "value": 7.28}]}
{"smiles": "Cc1nnc2n1-c1ccccc1C(c1ccccc1F)=NC2NC(=O)c1cc2ccccc2[nH]1", "note": "(stereo not drawn) [Compound 10, 6-(2-Fluorophenyl)-4-(indol-2-yl)carbonylamino-1-methyl-4H-s-triazolo[4,3-a]-1,4-benzodiazepine]", "values": [{"measurement": "pIC50", "setting": "CCK receptor [2]; [4]", "value": 9.40}, {"measurement": "pIC50", "setting": "CCK receptor [3]", "value": 7.18}]}
{"smiles": "CSCC[C@H](N)C(=O)N[C@@H](CC(=O)O)C(=O)N[C@@H](Cc1ccccc1)C(N)=O", "note": "[Met-Asp-Phe-NH2] (H-Met-Asp-Phe-NH2)", "values": [{"measurement": "CCK antagonist activity", "setting": "CCK receptor [1]", "value": "can function as CCK antagonists"}]}
{"smiles": "CCCC(=O)Nc1nc2c(ncn2[C@@H]2O[C@@H]3COP(=O)(O)O[C@H]3[C@H]2OC(=O)CCC)c(=O)[nH]1", "note": "[dibutyryl cyclic GMP]", "values": [{"measurement": "CCK antagonist activity", "setting": "CCK receptor [1]", "value": "most potent"}]}
{"smiles": "c1cnc2c(c1)ccc1cccnc12", "note": "[o-phenanthroline, reference compound]", "values": [{"measurement": "effect on the 125I-CCK receptor binding assay", "setting": "CCK receptor [2]", "value": "no effect"}]}
{"smiles": "O=S(=O)(F)Cc1ccccc1", "note": "[phenylmethane sulfonyl fluoride, reference compound]", "values": [{"measurement": "effect on the 125I-CCK receptor binding assay", "setting": "CCK receptor [2]", "value": "no effect"}]}
{"smiles": "CCCN(CCC)C(=O)C(CCC(=O)O)NC(=O)c1ccccc1", "note": "(stereo not drawn) [proglumide]", "values": [{"measurement": "in vitro gastrin antagonism", "setting": "gastrin receptor", "value": "Very weak in vitro antagonists"}]}
